Laboratory results from patent US8815891B2, “Tricyclic derivative or pharmaceutically acceptable salts thereof, preparation method thereof, and pharmaceutical composition containing the same” (Je Il Pharmaceutical Co., Ltd., priority 2008, dated 2014).
pIC50: −log10 of the molar value. Structures can show the parent of a compound that is named as a salt. Where two headings read alike, the source gives them in different places.

How the values were obtained:
SK-OV-3 Cell line = test: Cell growth inhibition of cancer cell lines (SRB assay), SK-OV-3; format: cell-based; conditions: for SN-38 PF50 / Temozolomide PF50: 2 μM compound; for GI50: Homo sapiens, 72 hours
Description: (§1) The tests on cell growth inhibitory activity were performed with respect to A549 (US, ATCC), SK-OV-3 (Korea Research Institute of Chemical Technology; KRICT), HT-29 (US, ATCC), MCF-7 cell (US, ATCC), using Sulforhodamin-B <SRB> Assay (1989, US National Cancer Institute (NCI)) which was developed to measure the in vitro anti-cancer activity of the drug. […] The samples of the compounds of the Examples according to the present invention were used for the tests, and before the tests, the samples were dissolved in dimethylsulfoxide and diluted with the culture medium (RPMI 1640) to be used. The final concentration of the sample was varied in the range of 0.3˜100 μM. After the culture medium was removed from the 96 well plates, the diluted sample solution was added by 100 μl, and cultured in 37° C., 5% CO2 culture medium for 72 hours. The time zero (Tz) plates were collected at the time point of adding the sample. Upon completing the culture, the medium was removed from each well along with Tz plate, then cold 10% trichloroacetic acid (TCA) was added by 100 μl per well. The wells were left at 4° C. for 1 hour, so that the cells were fixed into the bottom of the plates. After the cells were fixed, the plates were rinsed with water five to six times to remove the remaining trichloroacetic acid solution, and moisture was completely dried at room temperature. The cells were dyed for 30 minutes by adding the dye solution in which 0.4% sulforhodamine-B was dissolved in 1% acetic acid solution, by 100 μl per dried wells. The above was rinsed again with 1% acetic acid solution five to six times to ensure that sulforhodamine-B which had not attached to the cells was removed. The plates were again dried at room temperature. 100 μl of 10 mM tris-buffer was then added to dissolve the dye, and the optical density (OD) at 520 nm was measured with the microplate reader. GI50 of the sample regarding cancer cell was calculated as explained below. Time zero (Tz), control value (C) and test value (T) were obtained, in which Tz corresponds to OD value of time at which the sample is applied and culture is started, C corresponds to OD value of the well which is cultured without treatment with the sample, and T corresponds to OD value of the well which is treated with the sample and then cultured. The degree of cell growth inhibition of the sample was measured using: If […] [Mathematical Formula 1]
(§2) Further, the ability of Examples 2, 42, 49, 52, 72, 74, 101 to increase growth inhibition effect of temozolomide and SN-38 at 2 μM was determined.

PARP-1 enzyme [1] = molecular target: PARP-1 enzyme (Cricetulus griseus (Chinese hamster) (Cricetulus barabensis griseus), UniProt Q9R152); test: Intracellular PARP inhibitory activity (NAD(P)H released by MMS-treated CHO-K1 cells); format: cell-based
Description: In order to verify the ability of the compounds of the present invention to inhibit the PARP-1 enzyme activity, the amount of NAD(P)H accumulated on cell culture medium was measured.
The Chinese hamster ovary cells (CHO-K1) were cultured in RPMI1640 culture medium containing 10% fetal bovine serum (FBS). The cultured CHO-K1 cells were seeded into 96 well plate by 2.9×10^3 cells/well, and cultured for 16 hours under culture condition of 37° C., 5% CO2. After the culture, the cells were treated with the compounds of the Examples at varying concentrations, and cultured at 37° C. for 2 hours. […] The amount of […] released to the culture medium 3, 4, 5 hours after the treatment with MMS was quantified at 450 nm using Wallac EnVision™ (PerkinElmer Oy, Turku, Finland). The transference numbers of the compounds at varying concentrations according to the present invention are the average values obtained from four wells, and the results were calculated using regression analysis.
The Chinese hamster ovary cells (CHO-K1) were treated with the compounds at varying concentration according to the present invention, and the amount of NAD(P)H released into the culture medium 4 hours after the MMS treatment was quantified.

PARP-1 enzyme [2] = molecular target: PARP-1 enzyme (Homo sapiens (Human), UniProt P09874); test: Poly(ADP-ribose)polymerase [PARP-1] enzyme inhibitory activity (Trevigen PARP Assay kit); format: biochemical; conditions: read-out: PARP-1 Inhibitory activity IC50
Method in brief: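 On histone-coated plates, PARP-1 (0.12 unit/well) reacted with compound for 30 min at 25 °C in a 2× cocktail of 1.95 mM NAD+, 50 μM biotinylated NAD+ and activated DNA (Tris pH 8.0, 25 mM MgCl2). Biotin-ribosylated histone was detected with streptavidin-HRP and TACS-Sapphire substrate, stopped with HCl and read at 450 nm.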

A549 cell line = test: Cell growth inhibition of cancer cell lines (SRB assay), A549; format: cell-based; conditions: for SN-38 PF50 / Temozolomide PF50: 2 μM compound; for SN-38 PF50: GI50 SN-38 alone / GI50 with compound; for Temozolomide PF50: GI50 temozolomide alone / GI50 with compound; for GI50: Homo sapiens, 72 hours
Description: as §1, §2

MCF-7 Cell line = test: Cell growth inhibition of cancer cell lines (SRB assay), MCF-7; format: cell-based; conditions: for SN-38 PF50 / Temozolomide PF50: 2 μM compound; for GI50: Homo sapiens, MCF7, 72 hours
Description: as §1, §2

HT-29 Cell line = test: Cell growth inhibition of cancer cell lines (SRB assay), HT-29; format: cell-based; conditions: for SN-38 PF50 / Temozolomide PF50: 2 μM compound; for GI50: Homo sapiens, 72 hours
Description: as §1, §2

[3] = PARP-1 enzyme, histone ribosylation, 450 nm

PARP-1 enzyme (Homo sapiens (Human), UniProt P09874), sequence (P09874 whole entry): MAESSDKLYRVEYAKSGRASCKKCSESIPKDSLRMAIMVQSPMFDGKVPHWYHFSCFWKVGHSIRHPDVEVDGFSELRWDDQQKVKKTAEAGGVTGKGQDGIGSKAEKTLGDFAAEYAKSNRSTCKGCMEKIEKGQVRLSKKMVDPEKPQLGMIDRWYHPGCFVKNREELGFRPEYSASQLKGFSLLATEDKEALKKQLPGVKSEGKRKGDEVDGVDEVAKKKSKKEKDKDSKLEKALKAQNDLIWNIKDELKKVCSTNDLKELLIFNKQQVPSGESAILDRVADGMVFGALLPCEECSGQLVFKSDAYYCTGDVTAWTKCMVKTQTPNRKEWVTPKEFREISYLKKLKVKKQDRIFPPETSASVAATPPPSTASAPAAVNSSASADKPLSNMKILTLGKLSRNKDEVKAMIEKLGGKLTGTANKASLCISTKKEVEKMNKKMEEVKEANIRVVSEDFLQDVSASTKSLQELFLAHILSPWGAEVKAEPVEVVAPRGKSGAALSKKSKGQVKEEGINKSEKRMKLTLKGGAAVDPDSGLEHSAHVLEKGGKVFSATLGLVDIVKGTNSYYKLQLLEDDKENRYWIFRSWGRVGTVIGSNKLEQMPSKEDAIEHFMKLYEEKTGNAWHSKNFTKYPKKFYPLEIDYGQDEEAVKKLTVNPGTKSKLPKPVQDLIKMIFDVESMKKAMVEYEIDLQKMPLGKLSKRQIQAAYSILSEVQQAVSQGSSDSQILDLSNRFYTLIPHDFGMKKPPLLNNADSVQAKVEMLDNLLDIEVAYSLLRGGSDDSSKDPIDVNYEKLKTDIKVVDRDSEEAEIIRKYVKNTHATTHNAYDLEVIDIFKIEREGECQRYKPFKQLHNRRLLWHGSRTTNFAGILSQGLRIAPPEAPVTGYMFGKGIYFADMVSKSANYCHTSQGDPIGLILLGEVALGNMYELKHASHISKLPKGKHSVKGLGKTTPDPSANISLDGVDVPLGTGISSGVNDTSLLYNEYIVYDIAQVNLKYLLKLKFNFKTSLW
PARP-1 enzyme (Cricetulus griseus (Chinese hamster) (Cricetulus barabensis griseus), UniProt Q9R152), sequence (Q9R152 whole entry): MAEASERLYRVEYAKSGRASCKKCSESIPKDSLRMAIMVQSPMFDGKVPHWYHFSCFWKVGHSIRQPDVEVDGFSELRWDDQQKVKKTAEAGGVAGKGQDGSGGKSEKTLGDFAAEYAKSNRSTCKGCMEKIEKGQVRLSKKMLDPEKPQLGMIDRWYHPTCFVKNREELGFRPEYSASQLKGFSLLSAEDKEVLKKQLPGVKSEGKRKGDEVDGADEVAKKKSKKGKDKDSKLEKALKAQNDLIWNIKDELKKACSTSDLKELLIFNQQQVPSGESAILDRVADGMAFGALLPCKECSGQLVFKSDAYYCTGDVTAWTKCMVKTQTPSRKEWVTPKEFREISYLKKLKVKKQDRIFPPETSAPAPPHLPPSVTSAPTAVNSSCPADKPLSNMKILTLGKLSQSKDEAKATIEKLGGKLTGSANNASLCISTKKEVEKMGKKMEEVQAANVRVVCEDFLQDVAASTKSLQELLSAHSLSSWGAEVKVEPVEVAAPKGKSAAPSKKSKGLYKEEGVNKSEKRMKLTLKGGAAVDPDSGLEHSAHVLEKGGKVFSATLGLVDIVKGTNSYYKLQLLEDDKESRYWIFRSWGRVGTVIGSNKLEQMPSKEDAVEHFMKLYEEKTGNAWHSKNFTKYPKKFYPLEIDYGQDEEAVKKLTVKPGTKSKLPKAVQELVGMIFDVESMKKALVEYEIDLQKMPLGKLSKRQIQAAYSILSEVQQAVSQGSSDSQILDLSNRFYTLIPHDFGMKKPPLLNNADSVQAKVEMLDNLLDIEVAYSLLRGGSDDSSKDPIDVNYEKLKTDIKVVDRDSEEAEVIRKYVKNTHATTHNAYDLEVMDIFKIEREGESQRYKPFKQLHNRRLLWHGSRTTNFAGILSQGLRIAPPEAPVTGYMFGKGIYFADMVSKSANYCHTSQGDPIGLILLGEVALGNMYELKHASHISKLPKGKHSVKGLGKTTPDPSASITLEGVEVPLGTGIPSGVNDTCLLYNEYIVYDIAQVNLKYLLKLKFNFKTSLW

Row | SMILES | SN-38 PF50 (SK-OV-3 Cell line) | Temozolomide PF50 (SK-OV-3 Cell line) | GI50 (SK-OV-3 Cell line) | pIC50 (PARP-1 enzyme [1]) | pIC50 (PARP-1 enzyme [2]; [3]) | SN-38 PF50 (A549 cell line) | Temozolomide PF50 (A549 cell line) | GI50 (A549 cell line) | SN-38 PF50 (MCF-7 Cell line) | Temozolomide PF50 (MCF-7 Cell line) | GI50 (MCF-7 Cell line) | SN-38 PF50 (HT-29 Cell line) | Temozolomide PF50 (HT-29 Cell line) | GI50 (HT-29 Cell line) | pIC50 (PARP-1 enzyme [2])
1 | COc1cccc2[nH]c(=O)c3c(c12)NCCC3.Cl [Example 2, 10-Methoxy-1,2,3,4-tetrahydrobenzo[h][1,6]naphthyridine-5(6H)-one hydrochloride] | 1.2 | >3.2 | 50 µM | 6.04 | 6.22 | 2.2 | 2.4 | 59 µM | 1.4 | 1.7 | 51 µM | 1.4 | >1.5 | 70 µM | –
2 | O=c1[nH]c2ccc(OCCCCN3CCCCC3)cc2c2c1CCCN2 [Example 29, 9-[4-(Piperidine-1yl)butoxy]-1,2,3,4-tetrahydrobenzo[h][1,6]naphthyridine-5(6H)-one dihydrochloride] | 1.5 | >1.7 | > 100 µM | – | – | 1.5 | 2.0 | > 100 µM | 2.2 | 2.1 | > 100 µM | 1.5 | >1.2 | 91 µM | 5.55
3 | CCN(CC)Cc1ccc2c3c(c(=O)[nH]c2c1)CCCN3 [Example 42, 8-[(Diethylamino)methyl]-1,2,3,4-tetrahydrobenzo[h][1,6]naphthyridine-5(6H)-one dihydrochloride] | 1.6 | >2.1 | > 100 µM | 6.07 | – | 1.6 | 2.3 | > 100 µM | 1.6 | 1.6 | 75 µM | 2.1 | >1.4 | 81 µM | 6.66
4 | CNCc1ccc2c3c(c(=O)[nH]c2c1)CCCN3 [Example 52, 8-[(Methylamino)methyl]-1,2,3,4-tetrahydrobenzo[h][1,6]naphthyridine-5(6H)-one dihydrochloride] | 1.4 | >2.2 | > 100 µM | – | – | 2.2 | 1.5 | > 100 µM | 1.1 | 1.5 | > 100 µM | 1.4 | >1.3 | 90 µM | 7.15
5 | COc1cc(CN(C)C)cc2[nH]c(=O)c3c(c12)NCCC3 [Example 72, 8-[(Dimethylamino)methyl]-10-methoxy-1,2,3,4-tetrahydrobenzo[h][1,6]naphthyridine-5(6H)-one dihydrochloride] | 1.8 | >10.2 | > 100 µM | 7.05 | – | 3.8 | 3.4 | > 100 µM | 2.6 | 1.7 | 54 µM | 2.2 | >5.2 | > 100 µM | 7.10
6 | COc1cc(CNC(C)(C)C)cc2[nH]c(=O)c3c(c12)NCCC3 [Example 87, 8-[(t-Butylamino)methyl]-10-methoxy-1,2,3,4-tetrahydrobenzo[h][1,6]naphthyridine-5(6H)-one dihydrochloride] | – | – | – | 6.09 | – | – | – | – | – | – | – | – | – | – | 6.21
7 | CCOc1cc(CN2CCOCC2)cc2[nH]c(=O)c3c(c12)NCCC3 [Example 101, 10-Ethoxy-8-(morpholinomethyl)-1,2,3,4-tetrahydrobenzo[h][1,6]naphthyridine-5(6H)-one dihydrochloride] | 2.8 | >3.9 | 19 µM | 5.71 | 6.25 | 2.6 | 3.2 | 55 µM | 3.0 | 5.9 | 11 µM | 4.0 | >1.9 | 20 µM | –
8 | CCOc1cc(CNC)cc2[nH]c(=O)c3c(c12)NCCC3 [Example 103, 10-Etoxy-8-[(methylamino)methyl]-1,2,3,4-tetrahydrobenzo[h][1,6]naphthyridine-5(6H)-one dihydrochloride] | – | – | – | 6.09 | 6.92 | – | – | – | – | – | – | – | – | – | –
9 | CCNCc1cc(OCC)c2c3c(c(=O)[nH]c2c1)CCCN3 [Example 104, 10-Etoxy-8-[(ethylamino)methyl]-1,2,3,4-tetrahydrobenzo[h][1,6]naphthyridine-5(6H)-one dihydrochloride] | – | – | – | 5.78 | 7.22 | – | – | – | – | – | – | – | – | – | –
10 | COc1cc(CN2CCSCC2)cc2[nH]c(=O)c3c(c12)NCCC3 [Example 106, 10-Methoxy-8-(thiomorpholinomethyl)-1,2,3,4-tetrahydrobenzo[h][1,6]naphthyridine-5(6H)-one dihydrochloride] | – | – | – | 6.54 | – | – | – | – | – | – | – | – | – | – | 7.05
11 | COc1cc(CN2CCC(N3CCOCC3)CC2)cc2[nH]c(=O)c3c(c12)NCCC3 [Example 108, 10-Methoxy-8-[(4-morpholinopiperidine-1-yl)methyl]-1,2,3,4-tetrahydrobenzo[h][1,6]naphthyridine-5(6H)-one trihydrochloride] | – | – | – | 6.96 | – | – | – | – | – | – | – | – | – | – | 6.85
12 | COc1cc(CN)cc2[nH]c(=O)c3c(c12)NCCC3 [Example 109, 8-(Aminomethyl)-10-methoxy-1,2,3,4-tetrahydrobenzo[h][1,6]naphthyridine-5(6H)-one dihydrochloride] | – | – | – | 6.03 | – | – | – | – | – | – | – | – | – | – | 7.15
13 | CCCOc1cc(CN(C)C)cc2[nH]c(=O)c3c(c12)NCCC3 [Example 110, 8-[(Dimethylamino)methyl)]-10-propoxy-1,2,3,4-tetrahydrobenzo[h][1,6]naphthyridine-5(6H)-one dihydrochloride] | – | – | – | 7.05 | 7.10 | – | – | – | – | – | – | – | – | – | –
14 | CCCOc1cc(CN2CCOCC2)cc2[nH]c(=O)c3c(c12)NCCC3 [Example 111, 8-(Morpholinomethyl)-10-propoxy-1,2,3,4-tetrahydrobenzo[h][1,6]naphthyridine-5(6H)-one dihydrochloride] | – | – | – | 5.88 | – | – | – | – | – | – | – | – | – | – | 6.02
15 | CCOc1cc(CN)cc2[nH]c(=O)c3c(c12)NCCC3 [Example 113, 8-(Aminomethyl)-10-etoxy-1,2,3,4-tetrahydrobenzo[h][1,6]naphthyridine-5 (6H)-one dihydrochloride] | – | – | – | 5.84 | 7.00 | – | – | – | – | – | – | – | – | – | –
16 | CCCOc1cc(CN)cc2[nH]c(=O)c3c(c12)NCCC3 [Example 114, 8-(Aminomethyl)-10-propoxy-1,2,3,4-tetrahydrobenzo[h][1,6]naphthyridine-5(6H)-one dihydrochloride] | – | – | – | 5.72 | – | – | – | – | – | – | – | – | – | – | 6.72
17 | COCCOc1cc(CN2CCOCC2)cc2[nH]c(=O)c3c(c12)NCCC3 [Example 117, 10-(2-Methoxyetoxy)-8-(morpholinomethyl)-1,2,3,4-tetrahydrobenzo[h][1,6]naphthyridine-5(6H)-one dihydrochloride] | – | – | – | 5.20 | 6.21 | – | – | – | – | – | – | – | – | – | –
